According to ChEMBL document CHEMBL3885861, “Open TG-GATES”:

Species on record: Rattus norvegicus
Assay: Open TG-GATES - Regimen: Single
Type: toxicity, organism-based, Sprague-Dawley
Parameters: regimen Single, gender Male, age 6 weeks
Settings: in vivo, po, 24 h, route gavage; for Bas / Eos / Hb / Ht / Lym / MCH / MCHC / MCV / Mono / Neu / Plat / RBC / Ret / WBC: tissue Blood; for KIDNEY_L / KIDNEY_R / KIDNEY_TOTAL: tissue Kidney; for LIVER: tissue Liver; for A/G / ALP / ALT / AST / BUN / CRE / Ca / Cl / DBIL / GLC / IP / K / LDH / Na / PL / RALB / TBIL / TC / TG / TP / gamma-GTP: tissue Plasma

Compound: O=[N+]([O-])c1ccc2c(c1)Cc1ccccc1-2 [2-NITROFLUORENE]
- TERMINAL_BW (0 mg/kg, dose level Control): 226.9 g
- Bas (0 mg/kg, dose level Control): 0%
- Eos (0 mg/kg, dose level Control): 0.8%
- Hb (0 mg/kg, dose level Control): 12.7 g/dL
- Ht (0 mg/kg, dose level Control): 38.9%
- Lym (0 mg/kg, dose level Control): 78.4%
- MCH (0 mg/kg, dose level Control): 20.5 pg
- MCHC (0 mg/kg, dose level Control): 32.5%
- MCV (0 mg/kg, dose level Control): 63.1 fL
- Mono (0 mg/kg, dose level Control): 3.2%
- Neu (0 mg/kg, dose level Control): 16.8%
- Plat (0 mg/kg, dose level Control): 121 x10_4/uL
- RBC (0 mg/kg, dose level Control): 618 x10_4/ul
- Ret (0 mg/kg, dose level Control): 8.6%
- WBC (0 mg/kg, dose level Control): 96.1 x10_2/uL
- KIDNEY_L (0 mg/kg, dose level Control): 0.9 g
- KIDNEY_R (0 mg/kg, dose level Control): 0.9 g
- KIDNEY_TOTAL (0 mg/kg, dose level Control): 1.9 g
- LIVER (0 mg/kg, dose level Control): 10.2 g
- A/G (0 mg/kg, dose level Control): 1.1
- ALP (0 mg/kg, dose level Control): 1444.8 IU/L
- ALT (0 mg/kg, dose level Control): 41.6 IU/L
- AST (0 mg/kg, dose level Control): 69.6 IU/L
- BUN (0 mg/kg, dose level Control): 16.6 mg/dL
- CRE (0 mg/kg, dose level Control): 0.2 mg/dL
- Ca (0 mg/kg, dose level Control): 10.7 mg/dL
- Cl (0 mg/kg, dose level Control): 104.2 meq/L
- DBIL (0 mg/kg, dose level Control): 0.006 mg/dL
- GLC (0 mg/kg, dose level Control): 193.2 mg/dL
- IP (0 mg/kg, dose level Control): 6.8 mg/dL
- K (0 mg/kg, dose level Control): 4.1 meq/L
- LDH (0 mg/kg, dose level Control): 153.2 IU/L
- Na (0 mg/kg, dose level Control): 141.1 meq/L
- PL (0 mg/kg, dose level Control): 149 mg/dL
- RALB (0 mg/kg, dose level Control): 2.8 g/dL
- TBIL (0 mg/kg, dose level Control): 0 mg/dL
- TC (0 mg/kg, dose level Control): 79.8 mg/dL
- TG (0 mg/kg, dose level Control): 105.8 mg/dL
- TP (0 mg/kg, dose level Control): 5.4 g/dL
- gamma-GTP (0 mg/kg, dose level Control): 0.7 IU/L
- TERMINAL_BW (100 mg/kg, dose level Low): 220.2 g
- Bas (100 mg/kg, dose level Low): 0%
- Eos (100 mg/kg, dose level Low): 0.2%
- Hb (100 mg/kg, dose level Low): 12.8 g/dL
- Ht (100 mg/kg, dose level Low): 39.6%
- Lym (100 mg/kg, dose level Low): 79.6%
- MCH (100 mg/kg, dose level Low): 20.4 pg
- MCHC (100 mg/kg, dose level Low): 32.5%
- MCV (100 mg/kg, dose level Low): 62.8 fL
- Mono (100 mg/kg, dose level Low): 3.6%
- Neu (100 mg/kg, dose level Low): 15.4%
- Plat (100 mg/kg, dose level Low): 123.5 x10_4/uL
- RBC (100 mg/kg, dose level Low): 631.6 x10_4/ul
- Ret (100 mg/kg, dose level Low): 8.1%
- WBC (100 mg/kg, dose level Low): 113.4 x10_2/uL
- KIDNEY_L (100 mg/kg, dose level Low): 0.9 g
- KIDNEY_R (100 mg/kg, dose level Low): 1 g
- KIDNEY_TOTAL (100 mg/kg, dose level Low): 1.9 g
- LIVER (100 mg/kg, dose level Low): 10.1 g
- A/G (100 mg/kg, dose level Low): 1.2
- ALP (100 mg/kg, dose level Low): 1937 IU/L
- ALT (100 mg/kg, dose level Low): 39.8 IU/L
- AST (100 mg/kg, dose level Low): 82.2 IU/L
- BUN (100 mg/kg, dose level Low): 15.6 mg/dL
- CRE (100 mg/kg, dose level Low): 0.2 mg/dL
- Ca (100 mg/kg, dose level Low): 10.5 mg/dL
- Cl (100 mg/kg, dose level Low): 105.3 meq/L
- DBIL (100 mg/kg, dose level Low): 0.02 mg/dL
- GLC (100 mg/kg, dose level Low): 174.6 mg/dL
- IP (100 mg/kg, dose level Low): 6.7 mg/dL
- K (100 mg/kg, dose level Low): 4.3 meq/L
- LDH (100 mg/kg, dose level Low): 259.2 IU/L
- Na (100 mg/kg, dose level Low): 139.7 meq/L
- PL (100 mg/kg, dose level Low): 124.6 mg/dL
- RALB (100 mg/kg, dose level Low): 2.8 g/dL
- TBIL (100 mg/kg, dose level Low): 0.012 mg/dL
- TC (100 mg/kg, dose level Low): 64.2 mg/dL
- TG (100 mg/kg, dose level Low): 64.7 mg/dL
- TP (100 mg/kg, dose level Low): 5.2 g/dL
- gamma-GTP (100 mg/kg, dose level Low): 0.7 IU/L
- TERMINAL_BW (300 mg/kg, dose level Middle): 216.7 g
- Bas (300 mg/kg, dose level Middle): 0%
- Eos (300 mg/kg, dose level Middle): 0.4%
- Hb (300 mg/kg, dose level Middle): 13.1 g/dL
- Ht (300 mg/kg, dose level Middle): 40.4%
- Lym (300 mg/kg, dose level Middle): 73.4%
- MCH (300 mg/kg, dose level Middle): 20.4 pg
- MCHC (300 mg/kg, dose level Middle): 32.6%
- MCV (300 mg/kg, dose level Middle): 62.6 fL
- Mono (300 mg/kg, dose level Middle): 6%
- Neu (300 mg/kg, dose level Middle): 18.2%
- Plat (300 mg/kg, dose level Middle): 124.8 x10_4/uL
- RBC (300 mg/kg, dose level Middle): 645 x10_4/ul
- Ret (300 mg/kg, dose level Middle): 8.6%
- WBC (300 mg/kg, dose level Middle): 91 x10_2/uL
- KIDNEY_L (300 mg/kg, dose level Middle): 1 g
- KIDNEY_R (300 mg/kg, dose level Middle): 1 g
- KIDNEY_TOTAL (300 mg/kg, dose level Middle): 1.9 g
- LIVER (300 mg/kg, dose level Middle): 9.6 g
- A/G (300 mg/kg, dose level Middle): 1.2
- ALP (300 mg/kg, dose level Middle): 1406.4 IU/L
- ALT (300 mg/kg, dose level Middle): 35 IU/L
- AST (300 mg/kg, dose level Middle): 83.2 IU/L
- BUN (300 mg/kg, dose level Middle): 16.3 mg/dL
- CRE (300 mg/kg, dose level Middle): 0.2 mg/dL
- Ca (300 mg/kg, dose level Middle): 10.2 mg/dL
- Cl (300 mg/kg, dose level Middle): 104.9 meq/L
- DBIL (300 mg/kg, dose level Middle): 0.02 mg/dL
- GLC (300 mg/kg, dose level Middle): 165.6 mg/dL
- IP (300 mg/kg, dose level Middle): 7.7 mg/dL
- K (300 mg/kg, dose level Middle): 4.5 meq/L
- LDH (300 mg/kg, dose level Middle): 203 IU/L
- Na (300 mg/kg, dose level Middle): 139.3 meq/L
- PL (300 mg/kg, dose level Middle): 115.2 mg/dL
- RALB (300 mg/kg, dose level Middle): 2.8 g/dL
- TBIL (300 mg/kg, dose level Middle): 0.022 mg/dL
- TC (300 mg/kg, dose level Middle): 61.2 mg/dL
- TG (300 mg/kg, dose level Middle): 47.3 mg/dL
- TP (300 mg/kg, dose level Middle): 5.2 g/dL
- gamma-GTP (300 mg/kg, dose level Middle): 0.7 IU/L
- TERMINAL_BW (1000 mg/kg, dose level High): 211.8 g
- Bas (1000 mg/kg, dose level High): 0%
- Eos (1000 mg/kg, dose level High): 0.4%
- Hb (1000 mg/kg, dose level High): 13.6 g/dL
- Ht (1000 mg/kg, dose level High): 41.6%
- Lym (1000 mg/kg, dose level High): 79.4%
- MCH (1000 mg/kg, dose level High): 21 pg
- MCHC (1000 mg/kg, dose level High): 32.7%
- MCV (1000 mg/kg, dose level High): 64.2 fL
- Mono (1000 mg/kg, dose level High): 4%
- Neu (1000 mg/kg, dose level High): 15.6%
- Plat (1000 mg/kg, dose level High): 127.8 x10_4/uL
- RBC (1000 mg/kg, dose level High): 647.8 x10_4/ul
- Ret (1000 mg/kg, dose level High): 8.3%
- WBC (1000 mg/kg, dose level High): 75.6 x10_2/uL
- KIDNEY_L (1000 mg/kg, dose level High): 0.9 g
- KIDNEY_R (1000 mg/kg, dose level High): 0.9 g
- KIDNEY_TOTAL (1000 mg/kg, dose level High): 1.8 g
- LIVER (1000 mg/kg, dose level High): 9.6 g
- A/G (1000 mg/kg, dose level High): 1.1
- ALP (1000 mg/kg, dose level High): 1276 IU/L
- ALT (1000 mg/kg, dose level High): 29.8 IU/L
- AST (1000 mg/kg, dose level High): 74.4 IU/L
- BUN (1000 mg/kg, dose level High): 12.8 mg/dL
- CRE (1000 mg/kg, dose level High): 0.1 mg/dL
- Ca (1000 mg/kg, dose level High): 10.3 mg/dL
- Cl (1000 mg/kg, dose level High): 104.8 meq/L
- DBIL (1000 mg/kg, dose level High): 0.008 mg/dL
- GLC (1000 mg/kg, dose level High): 183.8 mg/dL
- IP (1000 mg/kg, dose level High): 7.6 mg/dL
- K (1000 mg/kg, dose level High): 4.1 meq/L
- LDH (1000 mg/kg, dose level High): 313.2 IU/L
- Na (1000 mg/kg, dose level High): 141 meq/L
- PL (1000 mg/kg, dose level High): 112.4 mg/dL
- RALB (1000 mg/kg, dose level High): 2.9 g/dL
- TBIL (1000 mg/kg, dose level High): 0.01 mg/dL
- TC (1000 mg/kg, dose level High): 57.2 mg/dL
- TG (1000 mg/kg, dose level High): 47.6 mg/dL
- TP (1000 mg/kg, dose level High): 5.5 g/dL
- gamma-GTP (1000 mg/kg, dose level High): 0.8 IU/L
